We go through 46 molecules from patent publication US12410179B2, “Modulators of TNF alpha activity and uses thereof” (RayThera, Inc., priority 2023, dated 2025).

Each structure is given as a SMILES string. Bounds are passed on as bounds.

TNFα, sequence (P01375 77-233 limits assumed): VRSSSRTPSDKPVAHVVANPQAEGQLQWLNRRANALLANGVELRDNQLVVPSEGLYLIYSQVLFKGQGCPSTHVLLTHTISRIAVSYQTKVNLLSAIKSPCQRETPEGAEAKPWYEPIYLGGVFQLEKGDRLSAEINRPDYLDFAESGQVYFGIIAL

The target in one test is TNFα (Homo sapiens, UniProt P01375). Kind of test: HEK-Blue hTNFα reporter assay. It counts as cell-based. On the set-up: purchased R&D biosystem (R&D Systems) 210-TA-020/CF. The note with it: HEK-Blue hTNFα reporter cells, SEAP readout; read-out: IC50 Range. Put shortly:
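IC50 from 4-parameter regression of % inhibition, with OD620 of secreted SEAP (QUANTI-Blue, 1 h) referenced to cells with and without hTNFα. HEK-Blue TNFα reporter cells were exposed 24 h to compound premixed 1 h with hTNFα ([…]).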
(In general: Reporter assays use an easily measured gene product as a stand-in for the process of interest.)
The term IC50 denotes the concentration at which inhibition is half-maximal. Regarding `CN1C(=O)c2cccc(OC(F)F)c2[C@H]2C[C@@H]1c1nn3ccc(-c4cnc(N5CCN(CCO)CC5)nc4)cc3c12` [Example 145], the IC50 was less than 25 nM.

`COc1cccc2c1[C@H]1C[C@H](c3nn4ccc(-c5cnc(C6(N)CCC6)nc5)cc4c31)N(C)C2=O` [Example 226]: the IC50 was less than 25 nM.

Turning to `[2H]C([2H])([2H])N1C(=O)c2cccc(OC(F)F)c2[C@H]2C[C@@H]1c1nn3ccc(-c4cnc(C(C)(C)N)c(F)c4)nc3c12` [Example 326], the concentration for half-maximal inhibition (IC50) is less than 25 nM.

Regarding `C[C@]1(C#N)C[C@](N)(c2ncc(-c3ccn4nc5c(c4n3)[C@@H]3C[C@H]5NC(=O)c4cccc(OC(F)F)c43)cn2)C1` [Example 60], the IC50 was less than 25 nM.

With `CN1C(=O)c2cccc(OC3CC3)c2[C@H]2C[C@@H]1c1nn3ccc(-c4cnc([C@]5(O)C[C@@](C)(O)C5)nc4)cc3c12` [Example 37], the half-inhibitory concentration (IC50) is less than 25 nM.

In the case of `CN1C(=O)c2cccc(OC(F)F)c2[C@H]2C[C@@H]1c1nn3ccc(-c4cnc([C@@](C)(O)C5COC5)nc4)cc3c12` [Example 85], the IC50 is less than 25 nM.

On to `[2H]C([2H])([2H])N1C(=O)c2cccc(OC(F)F)c2[C@H]2C[C@@H]1c1nn3ccc(-c4cnc([C@]5(O)C[C@@](C)(N)C5)c(F)c4)cc3c12` [Example 246], for which the IC50 was less than 25 nM.

For `CN1C(=O)c2cccc(OC(F)F)c2[C@H]2C[C@@H]1c1nn3ccc(-c4cnc([C@]5(O)C[C@](O)(C(F)F)C5)nc4)cc3c12` [Example 91], the IC50 was less than 25 nM.

On to `CN1C(=O)c2cccc(OC(F)F)c2[C@H]2C[C@@H]1c1nn3cc(F)c(-c4cnc(C5(O)COC5)nc4)cc3c12` [Example 98], for which the IC50 is less than 25 nM.

On to `C[C@](O)(CC#N)c1ncc(-c2ccn3nc4c(c3c2)[C@@H]2C[C@H]4NC(=O)c3cccc(OC(F)F)c32)cn1` [Example 164], for which the IC50 was less than 25 nM.

With `[2H]C([2H])([2H])N1C(=O)c2cccc(OC(F)F)c2[C@H]2C[C@@H]1c1nn3cc(F)c(-c4cnc([C@]5(N)C[C@@H](O)C5)nc4)nc3c12` [Example 205], the IC50 fell in the range of 25 to 100 nM.

In the case of `CN1C(=O)c2cccc(OC(F)F)c2[C@H]2C[C@@H]1c1nn3ccc(-c4cnc([C@]5(N)C[C@@](C)(CO)C5)nc4)nc3c12` [Example 10, (7R,14S)-12-(2-((1s,3R)-1-amino-3-(hydroxymethyl)-3-methylcyclobutyl)pyrimidin-5-yl)-1-(difluoromethoxy)-6-methyl-6,7-dihydro-7,14-methanobenzo[c]pyrimido[1′,2′:1,5]pyrazolo[4,3-f]azocin-5 (14H)-one], the IC50 is less than 25 nM.

Take `CN1C(=O)c2cccc(OC(F)F)c2[C@H]2C[C@@H]1c1nn3ccc(-c4cnc([C@]5(N)C[C@@](C)(O)C5)nc4)cc3c12` [Example 28]: the IC50 is less than 25 nM.

Take `[2H]C([2H])([2H])N1C(=O)c2cccc(OC(F)F)c2[C@H]2C[C@@H]1c1nn3ccc(-c4cnc([C@]5(N)C[C@@H](C#N)C5)nc4)nc3c12` [Example 176]: the IC50 was less than 25 nM.

For the molecule `CN1C(=O)c2cccc(OC(F)F)c2[C@H]2C[C@@H]1c1nn3ccc(-c4cnc([C@@H](O)C(C)(C)O)nc4)cc3c12` [Example 134], the concentration for half-maximal inhibition (IC50) is less than 25 nM.

Turning to `C[C@]1(C#N)C[C@](N)(c2ccc(-c3ccn4nc5c(c4n3)[C@@H]3C[C@H]5NC(=O)c4cccc(OC(F)F)c43)cn2)C1` [Example 217], the concentration for half-maximal inhibition (IC50) was less than 25 nM.

Consider `CN1C(=O)c2cccc(OC(F)F)c2[C@H]2C[C@@H]1c1nn3cc(F)c(-c4ccc(P(C)(C)=O)nc4)nc3c12` [Example 25], for which the IC50 is less than 25 nM.

For the molecule `C[C@](O)(CC#N)c1ncc(-c2cc3c4c(nn3cc2F)[C@H]2C[C@@H]4c3c(OC(F)F)cccc3C(=O)N2)cn1` [Example 192], the IC50 is less than 25 nM.

Turning to `CN1C(=O)c2cccc(OC(F)F)c2[C@H]2C[C@@H]1c1nn3ccc(-c4cnc([C@H](O)C(F)F)nc4)cc3c12` [Example 105], the IC50 was less than 25 nM.

Turning to `[2H]C([2H])([2H])N1C(=O)c2cccc(C#N)c2[C@H]2C[C@@H]1c1nn3ccc(-c4cnc([C@]5(N)C[C@@](C)(C#N)C5)nc4)nc3c12` [Example 301, (7R,14R)-12-(2-((1s,3S)-1-amino-3-cyano-3-methylcyclobutyl)pyrimidin-5-yl)-6-(methyl-d3)-5-oxo-5,6,7,14-tetrahydro-7,14-methanobenzo[c]pyrimido[1′,2′:1,5]pyrazolo[4,3-f]azocine-1-carbonitrile], the IC50 is less than 25 nM.

As to `CN1C(=O)c2cccc(OC(F)F)c2[C@H]2C[C@@H]1c1nn3ccc(-c4cnc(N5CCNCC5)nc4)cc3c12` [Example 143], the IC50 was less than 25 nM.

Turning to `[2H]C([2H])([2H])N1C(=O)c2cccc(OC(F)F)c2[C@H]2C[C@@H]1c1nn3cc(F)c(-c4cnc(C(C)(C)N)nc4)cc3c12` [Example 294], the IC50 is less than 25 nM.

On to `O=C1N[C@@H]2C[C@H](c3c(OC(F)F)cccc31)c1c2nn2ccc(C3=CCN(C(=O)O[C@H]4C[C@@H](O)C4)CC3)cc12` [Example 283], for which the IC50 was less than 25 nM.

On to `CN1C(=O)c2cccc(OC(F)F)c2[C@H]2C[C@@H]1c1nn3ccc(-c4cnc(N5CCC(O)CC5)nc4)cc3c12` [Example 156], for which the IC50 is less than 25 nM.

In the case of `CN1C(=O)c2cccc(OC(F)F)c2[C@H]2C[C@@H]1c1nn3ccc(-c4cnc([C@@](O)(CC#N)C(F)F)nc4)cc3c12` [Example 79], the concentration for half-maximal inhibition (IC50) is less than 25 nM.

As for `CN1C(=O)c2cccc(OC(F)F)c2[C@H]2C[C@@H]1c1nn3cc(F)c(-c4ccc(P5(=O)CCOCC5)nc4)cc3c12` [Example 161], the half-maximal inhibitory concentration (IC50) was less than 25 nM.

With `CN1C(=O)c2cccc(OC(F)F)c2[C@H]2C[C@@H]1c1nn3ccc(-c4cnc([C@H](N)C5CC5)nc4)cc3c12` [Example 103], the concentration for half-maximal inhibition (IC50) is less than 25 nM.

Regarding `CN1C(=O)c2cccc(OC(F)F)c2[C@H]2C[C@@H]1c1nn3ccc(-c4cnc([C@]5(O)C[C@@](C)(O)C5)nc4)cc3c12` [Example 24], the IC50 is less than 25 nM.

For the molecule `CN1C(=O)c2cccc(OC(F)F)c2[C@H]2C[C@@H]1c1nn3ccc(-c4cnc([C@]5(N)C[C@@](C)(O)C5)c(F)c4)cc3c12` [Example 40], the IC50 is less than 25 nM.

On to `CN1C(=O)c2cccc(C(F)F)c2[C@H]2C[C@@H]1c1nn3ccc(-c4cnc(C5(N)CCC5)nc4)cc3c12` [Example 299], for which the IC50 was less than 25 nM.

In the case of `CN1C(=O)c2cccc(OC(F)F)c2[C@H]2C[C@@H]1c1nn3ccc(-c4cnc(C5(N)CC(F)(F)C5)nc4)cc3c12` [Example 99], the concentration for half-maximal inhibition (IC50) is less than 25 nM.

In the case of `[2H]C([2H])([2H])N1C(=O)c2cccc(OC(F)F)c2[C@H]2C[C@@H]1c1nn3ccc(-c4cnc([C@]5(N)C[C@@](C)(O)C5)c(F)c4)nc3c12` [Example 189], the IC50 is less than 25 nM.

Turning to `CN1C(=O)c2cccc(OC(F)F)c2[C@H]2C[C@@H]1c1nn3ccc(C4=CCC(C(C)(C)O)OC4)cc3c12` (stereo in doubt) [Example 318, (7R,14S)-1-(difluoromethoxy)-12-((R)-6-(2-hydroxypropan-2-yl)-5,6-dihydro-2H-pyran-3-yl)-6-methyl-6,7-dihydro-7,14-methanobenzo[c]pyrido[1′,2′:1,5]pyrazolo[4,3-f]azocin-5 (14H)-one], the 50% inhibitory concentration (IC50) is less than 25 nM.

In the case of `CN1C(=O)c2cccc(OC(F)F)c2[C@H]2C[C@@H]1c1nn3ccc(-c4cnc(S(=N)(=O)C5CC5)nc4)cc3c12` (stereo partly drawn) [Example 92], the half-inhibitory concentration (IC50) was 25 to 100 nM.

Turning to `C[C@]1(O)C[C@](N)(c2ccc(-c3ccn4nc5c(c4n3)[C@@H]3C[C@H]5NC(=O)c4cccc(OC(F)F)c43)cn2)C1` [Example 220], the IC50 was 25 to 100 nM.

Turning to `[2H]C([2H])([2H])N1C(=O)c2cccc(OC(F)F)c2[C@H]2C[C@@H]1c1nn3ccc(-c4cnc([C@]5(N)C[C@@H](C#N)C5)nc4)cc3c12` [Example 170], the IC50 was less than 25 nM.

On to `[2H]C([2H])([2H])N1C(=O)c2cccc(OC(F)F)c2[C@H]2C[C@@H]1c1nn3ccc(-c4cnc([C@@]5(N)CCOC5)nc4)nc3c12` [Example 194], for which the IC50 lay in the range of 25 to 100 nM.

For the molecule `CN1C(=O)c2cccc(OC(F)F)c2[C@H]2C[C@@H]1c1nn3ccc(-c4cnc(C5(O)CCC5)nc4)cc3c12` [Example 71], the IC50 is less than 25 nM.

With `[2H]C([2H])([2H])N1C(=O)c2cccc(OC(F)F)c2[C@H]2C[C@@H]1c1nn3ccc(-c4ccc(C5(N)CCC5)nc4)nc3c12` [Example 182], the half-inhibitory concentration (IC50) is less than 25 nM.

For `CN1C(=O)c2cccc(OC(F)F)c2[C@H]2C[C@@H]1c1nn3ccc(-c4cnc([C@](C)(O)CO)nc4)cc3c12` [Example 83], the IC50 was less than 25 nM.

`CN1C(=O)c2cccc(OC(F)F)c2[C@H]2C[C@@H]1c1nn3cnc(-c4cnc(C5(N)CCC5)nc4)cc3c12` [Example 48]: the IC50 is less than 25 nM.

For `[2H]C([2H])([2H])N1C(=O)c2cccc(OC(F)F)c2[C@H]2C[C@@H]1c1nn3cc(F)c(-c4cnc(C5(N)COC5)nc4)nc3c12` [Example 178], the IC50 is less than 25 nM.

On to `CN1C(=O)c2cccc(OC(F)F)c2[C@H]2C[C@@H]1c1nn3cnc(-c4cnc([C@]5(O)C[C@@](C)(O)C5)nc4)cc3c12` [Example 32], for which the IC50 is less than 25 nM.

Turning to `[2H]C([2H])([2H])N1C(=O)c2ccc(F)c(OC(F)F)c2[C@H]2C[C@@H]1c1nn3ccc(-c4cnc(C5(N)CCC5)nc4)nc3c12` [Example 282], the IC50 was less than 25 nM.

Regarding `[2H]C([2H])([2H])N1C(=O)c2cccc(OC(F)F)c2[C@H]2C[C@@H]1c1nn3cc(F)c(-c4cnc([C@]5(N)C[C@@](C)(CO)C5)c(F)c4)nc3c12` [Example 268], the 50% inhibitory concentration (IC50) is less than 25 nM.

The same test, now with this note: HEK-Blue hTNFα reporter cells; read-out: TNFα reporter, Emax.
The Emax is the greatest response seen or fitted, relative to the assay's reference. Take `CN1C(=O)c2cccc(OC(F)F)c2[C@H]2C[C@@H]1c1nn3ccc(-c4cnc([C@]5(N)C[C@@](C)(CO)C5)nc4)nc3c12` [Example 10, (7R,14S)-12-(2-((1s,3R)-1-amino-3-(hydroxymethyl)-3-methylcyclobutyl)pyrimidin-5-yl)-1-(difluoromethoxy)-6-methyl-6,7-dihydro-7,14-methanobenzo[c]pyrimido[1′,2′:1,5]pyrazolo[4,3-f]azocin-5 (14H)-one]: the Emax was determined as 93%.

`CN1C(=O)c2cccc(OC(F)F)c2[C@H]2C[C@@H]1c1nn3ccc(-c4cnc([C@]5(O)C[C@@](C)(O)C5)nc4)cc3c12` [Example 24]: the Emax was 91%.

As to `CN1C(=O)c2cccc(OC(F)F)c2[C@H]2C[C@@H]1c1nc3ccc(-c4cnc([C@]5(O)C[C@@](C)(O)C5)nc4)cc3n12` [Comp. Ex #6, reference compound], the Emax was found to be 82%.

Staying with this test, now noted: HEK-Blue hTNFα reporter cells; read-out: TNFα reporter, IC50.
For `CN1C(=O)c2cccc(OC(F)F)c2[C@H]2C[C@@H]1c1nn3ccc(-c4cnc([C@]5(N)C[C@@](C)(CO)C5)nc4)nc3c12` [Example 10, (7R,14S)-12-(2-((1s,3R)-1-amino-3-(hydroxymethyl)-3-methylcyclobutyl)pyrimidin-5-yl)-1-(difluoromethoxy)-6-methyl-6,7-dihydro-7,14-methanobenzo[c]pyrimido[1′,2′:1,5]pyrazolo[4,3-f]azocin-5 (14H)-one], the IC50 amounted to 12.7 nM.

For the molecule `CN1C(=O)c2cccc(OC(F)F)c2[C@H]2C[C@@H]1c1nn3ccc(-c4cnc([C@]5(O)C[C@@](C)(O)C5)nc4)cc3c12` [Example 24], the IC50 came out at 2.3 nM.

For `CN1C(=O)c2cccc(OC(F)F)c2[C@H]2C[C@@H]1c1nc3ccc(-c4cnc([C@]5(O)C[C@@](C)(O)C5)nc4)cc3n12` [Comp. Ex #6, reference compound], the IC50 was 5.2 nM.
